Source: patent US20260130395A1, “Water Dispersible Botanical Compositions” (Aquila Black Limited, priority 2021, published 2026)

Assay: Stability of cannabinoid compounds and Vitamin E components in Beverage 2 (AB Red) by LCMSMS
Type: physicochemical

CCCCCc1cc(O)c2c(c1)OC(C)(C)c1ccc(C)cc1-2 [CBN, cannabinol]
Stability of Plant-Derived Cannabinoid Compounds in AB Red (stored at 8° C., 0 days): 2.81 µg/mL
Stability of Plant-Derived Cannabinoid Compounds in AB Red (stored at 8° C., 1 days): 2.82 µg/mL
Stability of Plant-Derived Cannabinoid Compounds in AB Red (stored at 8° C., 2 days): 2.74 µg/mL
Stability of Plant-Derived Cannabinoid Compounds in AB Red (stored at 8° C., 3 days): 2.83 µg/mL
Stability of Plant-Derived Cannabinoid Compounds in AB Red (stored at 8° C., 5 days): 2.78 µg/mL
Stability of Plant-Derived Cannabinoid Compounds in AB Red (stored at 8° C., 8 days): 2.80 µg/mL
Stability of Plant-Derived Cannabinoid Compounds in AB Red (stored at 8° C., 9 days): 2.74 µg/mL
Stability of Plant-Derived Cannabinoid Compounds in AB Red (stored at 8° C., 10 days): 2.79 µg/mL
Stability of Plant-Derived Cannabinoid Compounds in AB Red (stored at 8° C., 11 days): 2.73 µg/mL
Stability of Plant-Derived Cannabinoid Compounds in AB Red (stored at 8° C., 12 days): 2.76 µg/mL
Stability of Plant-Derived Cannabinoid Compounds in AB Red (stored at 8° C., 15 days): 2.77 µg/mL
Stability of Plant-Derived Cannabinoid Compounds in AB Red (stored at 8° C., 16 days): 2.83 µg/mL
Stability of Plant-Derived Cannabinoid Compounds in AB Red (stored at 8° C., 17 days): 2.80 µg/mL
Stability of Plant-Derived Cannabinoid Compounds in AB Red (stored at 8° C., 18 days): 2.78 µg/mL
Stability of Plant-Derived Cannabinoid Compounds in AB Red (stored at 8° C., 19 days): 2.78 µg/mL
Stability of Plant-Derived Cannabinoid Compounds in AB Red (stored at 8° C., 22 days): 2.73 µg/mL
Stability of Plant-Derived Cannabinoid Compounds in AB Red (stored at 8° C., 23 days): 2.79 µg/mL
Stability of Plant-Derived Cannabinoid Compounds in AB Red (stored at 8° C., 24 days): 2.76 µg/mL
Stability of Plant-Derived Cannabinoid Compounds in AB Red (stored at 8° C., 25 days): 2.83 µg/mL
Stability of Plant-Derived Cannabinoid Compounds in AB Red (stored at 8° C., 26 days): 2.79 µg/mL
Stability of Plant-Derived Cannabinoid Compounds in AB Red (stored at 8° C., 29 days): 2.77 µg/mL
Stability of Plant-Derived Cannabinoid Compounds in AB Red (stored at 8° C., 30 days): 2.77 µg/mL
Stability of Plant-Derived Cannabinoid Compounds in AB Red (stored at 8° C., 60 days): 2.73 µg/mL
Stability of Plant-Derived Cannabinoid Compounds in AB Red (stored at 8° C., 90 days): 2.80 µg/mL
Stability of Plant-Derived Cannabinoid Compounds in AB Red (stored at 8° C., 120 days): 2.69 µg/mL
Stability of Plant-Derived Cannabinoid Compounds in AB Red (stored at 8° C., 150 days): 2.69 µg/mL
Stability of Plant-Derived Cannabinoid Compounds in AB Red (stored at 8° C., 180 days): 2.74 µg/mL
Stability of Plant-Derived Cannabinoid Compounds in AB Red (stored at 8° C., 210 days): 2.69 µg/mL
Stability of Plant-Derived Cannabinoid Compounds in AB Red (stored at 8° C., 240 days): 2.74 µg/mL
Stability of Plant-Derived Cannabinoid Compounds in AB Red (stored at 8° C., 270 days): 2.76 µg/mL
Stability of Plant-Derived Cannabinoid Compounds in AB Red (stored at 8° C., 300 days): 2.75 µg/mL
Stability of Plant-Derived Cannabinoid Compounds in AB Red (stored at 8° C., 330 days): 2.71 µg/mL
Stability of Plant-Derived Cannabinoid Compounds in AB Red (stored at 8° C., 360 days): 2.69 µg/mL
Stability of Plant-Derived Cannabinoid Compounds in AB Red (stored at 8° C., 390 days): 2.72 µg/mL
Stability of Plant-Derived Cannabinoid Compounds in AB Red (stored at 8° C., 420 days): 2.69 µg/mL
Stability of Plant-Derived Cannabinoid Compounds in AB Red (stored at 8° C., 450 days): 2.71 µg/mL
Stability of Plant-Derived Cannabinoid Compounds in AB Red (stored at 8° C., 480 days): 2.66 µg/mL
Stability of Plant-Derived Cannabinoid Compounds in AB Red (stored at 8° C., 510 days): 2.62 µg/mL
Stability of Plant-Derived Cannabinoid Compounds in AB Red (stored at 8° C., 540 days): 2.60 µg/mL
Stability of Plant-Derived Cannabinoid Compounds in AB Red (stored at 8° C., 570 days): 2.58 µg/mL
Stability of Plant-Derived Cannabinoid Compounds in AB Red (stored at 21-25° C., 0 days): 2.81 µg/mL
Stability of Plant-Derived Cannabinoid Compounds in AB Red (stored at 21-25° C., 1 days): 2.73 µg/mL
Stability of Plant-Derived Cannabinoid Compounds in AB Red (stored at 21-25° C., 2 days): 2.83 µg/mL
Stability of Plant-Derived Cannabinoid Compounds in AB Red (stored at 21-25° C., 3 days): 2.78 µg/mL
Stability of Plant-Derived Cannabinoid Compounds in AB Red (stored at 21-25° C., 5 days): 2.71 µg/mL
Stability of Plant-Derived Cannabinoid Compounds in AB Red (stored at 21-25° C., 8 days): 2.74 µg/mL
Stability of Plant-Derived Cannabinoid Compounds in AB Red (stored at 21-25° C., 9 days): 2.72 µg/mL
Stability of Plant-Derived Cannabinoid Compounds in AB Red (stored at 21-25° C., 10 days): 2.73 µg/mL
Stability of Plant-Derived Cannabinoid Compounds in AB Red (stored at 21-25° C., 11 days): 2.83 µg/mL
Stability of Plant-Derived Cannabinoid Compounds in AB Red (stored at 21-25° C., 12 days): 2.70 µg/mL
Stability of Plant-Derived Cannabinoid Compounds in AB Red (stored at 21-25° C., 15 days): 2.77 µg/mL
Stability of Plant-Derived Cannabinoid Compounds in AB Red (stored at 21-25° C., 16 days): 2.81 µg/mL
Stability of Plant-Derived Cannabinoid Compounds in AB Red (stored at 21-25° C., 17 days): 2.74 µg/mL
Stability of Plant-Derived Cannabinoid Compounds in AB Red (stored at 21-25° C., 18 days): 2.80 µg/mL
Stability of Plant-Derived Cannabinoid Compounds in AB Red (stored at 21-25° C., 19 days): 2.70 µg/mL
Stability of Plant-Derived Cannabinoid Compounds in AB Red (stored at 21-25° C., 22 days): 2.70 µg/mL
Stability of Plant-Derived Cannabinoid Compounds in AB Red (stored at 21-25° C., 23 days): 2.82 µg/mL
Stability of Plant-Derived Cannabinoid Compounds in AB Red (stored at 21-25° C., 24 days): 2.78 µg/mL
Stability of Plant-Derived Cannabinoid Compounds in AB Red (stored at 21-25° C., 25 days): 2.84 µg/mL
Stability of Plant-Derived Cannabinoid Compounds in AB Red (stored at 21-25° C., 26 days): 2.70 µg/mL
Stability of Plant-Derived Cannabinoid Compounds in AB Red (stored at 21-25° C., 29 days): 2.78 µg/mL
Stability of Plant-Derived Cannabinoid Compounds in AB Red (stored at 21-25° C., 30 days): 2.77 µg/mL
Stability of Plant-Derived Cannabinoid Compounds in AB Red (stored at 21-25° C., 60 days): 2.78 µg/mL
Stability of Plant-Derived Cannabinoid Compounds in AB Red (stored at 21-25° C., 90 days): 2.75 µg/mL
Stability of Plant-Derived Cannabinoid Compounds in AB Red (stored at 21-25° C., 120 days): 2.77 µg/mL
Stability of Plant-Derived Cannabinoid Compounds in AB Red (stored at 21-25° C., 150 days): 2.75 µg/mL
Stability of Plant-Derived Cannabinoid Compounds in AB Red (stored at 21-25° C., 180 days): 2.70 µg/mL
Stability of Plant-Derived Cannabinoid Compounds in AB Red (stored at 21-25° C., 210 days): 2.70 µg/mL
Stability of Plant-Derived Cannabinoid Compounds in AB Red (stored at 21-25° C., 240 days): 2.73 µg/mL
Stability of Plant-Derived Cannabinoid Compounds in AB Red (stored at 21-25° C., 270 days): 2.73 µg/mL
Stability of Plant-Derived Cannabinoid Compounds in AB Red (stored at 21-25° C., 300 days): 2.70 µg/mL
Stability of Plant-Derived Cannabinoid Compounds in AB Red (stored at 21-25° C., 330 days): 2.75 µg/mL
Stability of Plant-Derived Cannabinoid Compounds in AB Red (stored at 21-25° C., 360 days): 2.72 µg/mL
Stability of Plant-Derived Cannabinoid Compounds in AB Red (stored at 21-25° C., 390 days): 2.65 µg/mL
Stability of Plant-Derived Cannabinoid Compounds in AB Red (stored at 21-25° C., 420 days): 2.64 µg/mL
Stability of Plant-Derived Cannabinoid Compounds in AB Red (stored at 21-25° C., 450 days): 2.68 µg/mL
Stability of Plant-Derived Cannabinoid Compounds in AB Red (stored at 21-25° C., 480 days): 2.58 µg/mL
Stability of Plant-Derived Cannabinoid Compounds in AB Red (stored at 21-25° C., 510 days): 2.66 µg/mL
Stability of Plant-Derived Cannabinoid Compounds in AB Red (stored at 21-25° C., 540 days): 2.65 µg/mL
Stability of Plant-Derived Cannabinoid Compounds in AB Red (stored at 21-25° C., 570 days): 2.58 µg/mL
